From patent US20260217701A1, “SELECTIVE BET INHIBITORS AND USES THEREOF” (Tay Therapeutics Limited, priority 2022, published 2026)
Where “and” joins values, the source holds several entries; their conditions need not be identical. Equal values may be shown once.

Test system: imiquimod-induced psoriasis
Experiment: Imiquimod-induced psoriasis model
Format: in vivo, mice
Set-up: Spleen Weight / Spleen Weight Ratio: unit not given here
Conditions: for PASI Scores: IMI + Apremilast 3 mg/kg; for Mean scores of the presence of erythema on the skin of animals at the area of induction of psoriasis / Mean scores of the presence of induration on the skin of animals at the area of induction of psoriasis / Mean scores of the presence of peeling on the skin of animals at the area of induction of psoriasis: mean ± SEM
Text: Imiquimod-induced psoriasis is a model of psoriasis in mice that induces psoriasis-like dermatitis. The pathology closes resembles human plaque-type psoriasis and is a valuable tool for testing new therapies against psoriasis. […] Compound A was formulated in a 5% DMSO/40% PEG-400/55% (0.9% NaCl w/v water) solution (Table 2F). Experimental groups for the study are outlined in Table 4. Prior to study initiation, the backs of all animals in the study were depilated to allow for induction of psoriasis and monitoring of disease progression.
Once assigned to experimental groups, on Day 1 and continuing through Day 14, topical imiquimod (IMI; Aldara™ containing 5% Imiquimod) was administered to the dorsal depilated animals, and animals in group 1 received topical administration of Excipial® hydrocream (65 mg). […] Clobetasol was applied topically for animals in group 11.
Body weights were recorded three times a week from Day 1 to Day 8, and daily from Day 8 until the study end at Day 15. At termination on D15 the spleen weight ratio was determined. Disease severity was assessed using the psoriasis area severity index (PASI) daily from Day 8 until study completion on Day 15. The PASI score was calculated based on three parameters (presence of erythema, induration of the skin, and peeling of the skin at the area of induction) on a scale of 0 to 4 (0=no more or absence, 1=low, 2=moderate, 3=high, 4=severe). The PASI score for each animal was calculated as the sum of the score of each parameter measured. The score of the use of enrichment (SUE) was also assessed daily from Day 8 to Day 15. At study completion on Day 15, animal behavior was evaluated using an open field to assess distance travelled, number scratching, and licking and rearing performed in 10 minutes. Upon study termination animals were sacrificed, the spleen was excised and weighed, and blood samples were collected. Serum was isolated from the blood sample for cytokine and other biomarker analysis. IL-1B, IL-6, IL-17, and TNF-α assayed using simple plex technique on an ELLA automated immunoassay system. IL-22 and IL-23 were assayed by ELISA.
The imiquimod-induced model of psoriasis was used to assess the efficacy of Compound A in treating psoriasis. […] Treatment started on Day 8 after induction so reference to day 1 of treatment is to Day 8 and day 7 of treatment is to Day 14.

[1] = IMI-psoriasis model, behavioral evaluation D15, 3 mg/kg, individual animals
[2] = IMI-psoriasis model, behavioral evaluation, 3 mg/kg, individual animals
[3] = IMI-psoriasis model, mice, 3 mg/kg, individual animals
[4] = IMI + 3 mg/kg, D8 (before start of treatment)

CCOc1cc([C@@H](CS(C)(=O)=O)N2C(=O)c3cccc(NC(C)=O)c3C2=O)ccc1OC [Apremilast, reference compound]
Body Weight D1 (IMI + 3 mg/kg, Day 1 (before treatment start on Day 8), individual animals, 3 mg/kg, in g (unit assumed)): 18.04 and 18.00 and 18.05 and 18.89 and 15.16 and 17.91 and 18.62 and 18.72
Body Weight D3 (IMI + 3 mg/kg, Day 3 (before treatment start on Day 8), individual animals, 3 mg/kg, in g (unit assumed)): 15.91 and 16.38 and 17.39 and 17.17 and 13.24 and 16.46 and 17.63 and 16.03
Body Weight D5 (IMI + 3 mg/kg, Day 5 (before treatment start on Day 8), individual animals, 3 mg/kg, in g (unit assumed)): 16.70 and 17.24 and 17.88 and 17.91 and 13.95 and 16.38 and 17.65 and 16.94
Body Weight D7 (IMI + 3 mg/kg, Day 7 (before treatment start on Day 8), individual animals, 3 mg/kg, in g (unit assumed)): 16.55 and 16.74 and 17.25 and 17.69 and 15.07 and 16.92 and 17.97 and 17.32
Body Weight D8 (IMI + 3 mg/kg, Day 8 (first day of treatment), individual animals, 3 mg/kg, in g (unit assumed)): 16.41 and 16.59 and 17.27 and 17.43 and 13.81 and 17.05 and 17.50 and 16.19
Body Weight D9 (IMI + 3 mg/kg, Day 9, individual animals, 3 mg/kg): 16.75 and 17.41 (2×) and 17.44 and 17.12 and 13.85 and 17.04 and 16.34
Body Weight D10 (IMI + 3 mg/kg, Day 10, individual animals, 3 mg/kg, in g (unit assumed)): 17.13 and 17.32 and 17.55 and 17.39 and 13.82 and 17.24 and 17.62 and 17.09
Body Weight D11 (IMI + 3 mg/kg, Day 11, individual animals, 3 mg/kg, in g (unit assumed)): 16.87 and 17.60 and 17.50 and 17.32 and 14.44 and 17.59 and 17.99 and 17.89
Body Weight D12 (IMI + 3 mg/kg, Day 12, individual animals, 3 mg/kg, in g (unit assumed)): 17.32 and 18.46 and 17.58 and 17.84 and 14.88 and 18.39 and 18.34 and 18.22
Body Weight D13 (IMI + 3 mg/kg, Day 13, individual animals, 3 mg/kg, in g (unit assumed)): 17.57 and 18.62 and 18.39 and 18.19 and 14.70 and 18.17 and 18.61 and 18.32
Body Weight D14 (IMI + 3 mg/kg, Day 14, individual animals, 3 mg/kg, in g (unit assumed)): 17.89 and 18.64 and 18.56 and 18.40 and 15.26 and 17.85 and 18.49 and 18.20
Body Weight D15 (IMI + 3 mg/kg, Day 15, individual animals, 3 mg/kg): 18.27 and 18.85 (2×) and 18.94 and 15.48 and 18.37 and 18.62 and 18.57
MBWC D1-D8 (IMI + 3 mg/kg, body weight change Day 1 to Day 8 (before treatment), individual animals, 3 mg/kg): −1.63 and −1.41 and −0.78 and −1.46 and −1.35 and −0.86 and −1.12 and −2.53
MBWC D8-D15 (IMI + 3 mg/kg, body weight change Day 8 to Day 15 (treatment period), individual animals, 3 mg/kg): 1.86 and 2.26 and 1.67 (2×) and 1.42 and 1.32 and 1.12 and 2.38
PASI Scores (D8 (day treatment started), individual animals): 9 and 7 (4×) and 8 (2×) and 6
PASI Scores (D9, individual animals): 8 and 5 (2×) and 7 and 6 (3×) and 4
PASI Scores (D10, individual animals): 6 (2×) and 7 (2×) and 4 (4×)
PASI Scores (D11, individual animals): 5 (4×) and 4 (4×)
PASI Scores (D12, individual animals): 3 (4×) and 5 and 2 (2×) and 1
PASI Scores (D13, individual animals): 1 (3×) and 0 (3×) and 2 (2×)
PASI Scores (D14, individual animals): 2 and 0 (3×) and 1 (4×)
PASI Scores (D15, individual animals): 1 (3×) and 0 (5×)
Use Enrichment D1 (IMI-psoriasis model, D1, 3 mg/kg, per cage (two animals)): 4.0
Use Enrichment D10 (IMI-psoriasis model, D10, 3 mg/kg, per cage (two animals)): 2.5 and 3.0 and 2.0
Use Enrichment D11 (IMI-psoriasis model, D11, 3 mg/kg, per cage (two animals)): 3.5 and 4.0 and 3.0
Use Enrichment D12 (IMI-psoriasis model, D12, 3 mg/kg, per cage (two animals)): 3.5 and 2.5 and 3.0
Use Enrichment D13 (IMI-psoriasis model, D13, 3 mg/kg, per cage (two animals)): 4.0
Use Enrichment D14 (IMI-psoriasis model, D14, 3 mg/kg, per cage (two animals)): 4.0
Use Enrichment D15 (IMI-psoriasis model, D15, 3 mg/kg, per cage (two animals)): 4.0
Number Licking [1]: 4 (2×) and 5 and 1 and 2 (2×) and 3 (2×)
Number Licking + Scratching [1]: 5 and 6 and 1 and 2 (2×) and 7 and 3 (2×)
Number Scratching [1]: 1 (2×) and 0 (5×) and 3
Distance Traveled [2]: 10 m and 13 m and 8 m and 11 m (2×) and 17 m and 9 m and 15 m
Number Rearings [2]: 20 and 58 and 21 and 42 and 81 and 13 and 60 and 12
Use Enrichment Mean D1-D8 (IMI-psoriasis model, mean D1-D8, 3 mg/kg, per cage (two animals)): 2.50 and 2.00
Use Enrichment Mean D8-D15 (IMI-psoriasis model, mean D8-D15, 3 mg/kg, per cage (two animals)): 3.07 and 3.36 and 2.93
Spleen Weight [3]: 180.97 and 286.06 and 424.79 and 208.70 and 207.33 and 227.51 and 223.09 and 221.44
Spleen Weight Ratio [3]: 990.53 and 1517.56 and 2242.82 and 1107.16 and 1339.34 and 1238.49 and 1198.12 and 1192.46
Mean scores of the presence of erythema on the skin of animals at the area of induction of psoriasis [4]: 2.1 ± 0.1
Mean scores of the presence of induration on the skin of animals at the area of induction of psoriasis [4]: 3.0 ± 0.0
Mean scores of the presence of peeling on the skin of animals at the area of induction of psoriasis [4]: 2.5 ± 0.2
Mean scores of the presence of erythema on the skin of animals at the area of induction of psoriasis (IMI + 3 mg/kg, D9): 1.5 ± 0.2
Mean scores of the presence of induration on the skin of animals at the area of induction of psoriasis (IMI + 3 mg/kg, D9): 2.3 ± 0.2
Mean scores of the presence of peeling on the skin of animals at the area of induction of psoriasis (IMI + 3 mg/kg, D9): 2.1 ± 0.2
Mean scores of the presence of erythema on the skin of animals at the area of induction of psoriasis (IMI + 3 mg/kg, D10): 1.6 ± 0.2
Mean scores of the presence of induration on the skin of animals at the area of induction of psoriasis (IMI + 3 mg/kg, D10): 2.0 ± 0.2
Mean scores of the presence of peeling on the skin of animals at the area of induction of psoriasis (IMI + 3 mg/kg, D10): 1.6 ± 0.3
Mean scores of the presence of erythema on the skin of animals at the area of induction of psoriasis (IMI + 3 mg/kg, D11): 1.4 ± 0.2
Mean scores of the presence of induration on the skin of animals at the area of induction of psoriasis (IMI + 3 mg/kg, D11): 1.8 ± 0.2
Mean scores of the presence of peeling on the skin of animals at the area of induction of psoriasis (IMI + 3 mg/kg, D11): 1.4 ± 0.2
Mean scores of the presence of erythema on the skin of animals at the area of induction of psoriasis (IMI + 3 mg/kg, D12): 0.75 ± 0.2
Mean scores of the presence of induration on the skin of animals at the area of induction of psoriasis (IMI + 3 mg/kg, D12): 0.9 ± 0.2
Mean scores of the presence of peeling on the skin of animals at the area of induction of psoriasis (IMI + 3 mg/kg, D12): 1.1 ± 0.1
Mean scores of the presence of erythema on the skin of animals at the area of induction of psoriasis (IMI + 3 mg/kg, D13): 0.3 ± 0.2
Mean scores of the presence of induration on the skin of animals at the area of induction of psoriasis (IMI + 3 mg/kg, D13): 0.4 ± 0.2
Mean scores of the presence of peeling on the skin of animals at the area of induction of psoriasis (IMI + 3 mg/kg, D13): 0.3 ± 0.2
Mean scores of the presence of erythema on the skin of animals at the area of induction of psoriasis (IMI + 3 mg/kg, D14): 0.0 ± 0.0
Mean scores of the presence of induration on the skin of animals at the area of induction of psoriasis (IMI + 3 mg/kg, D14): 0.4 ± 0.2
Mean scores of the presence of peeling on the skin of animals at the area of induction of psoriasis (IMI + 3 mg/kg, D14): 0.4 ± 0.2
Mean scores of the presence of erythema on the skin of animals at the area of induction of psoriasis (IMI + 3 mg/kg, D15): 0.1 ± 0.1
Mean scores of the presence of induration on the skin of animals at the area of induction of psoriasis (IMI + 3 mg/kg, D15): 0.1 ± 0.1
Mean scores of the presence of peeling on the skin of animals at the area of induction of psoriasis (IMI + 3 mg/kg, D15): 0.1 ± 0.1
Mean PASI Scores in IMI-Psoriasis Model (mice, IMI + 3 mg/kg, D8 (before start of treatment)): 7.4 ± 0.3
Mean PASI Scores in IMI-Psoriasis Model (mice, IMI + 3 mg/kg, D9): 5.9 ± 0.4
Mean PASI Scores in IMI-Psoriasis Model (mice, IMI + 3 mg/kg, D10): 5.3 ± 0.5
Mean PASI Scores in IMI-Psoriasis Model (mice, IMI + 3 mg/kg, D11): 4.5 ± 0.2
Mean PASI Scores in IMI-Psoriasis Model (mice, IMI + 3 mg/kg, D12): 2.8 ± 0.4
Mean PASI Scores in IMI-Psoriasis Model (mice, IMI + 3 mg/kg, D13): 0.9 ± 0.3
Mean PASI Scores in IMI-Psoriasis Model (mice, IMI + 3 mg/kg, D14): 0.8 ± 0.3
Mean PASI Scores in IMI-Psoriasis Model (mice, IMI + 3 mg/kg, D15): 0.4 ± 0.2
